Like-named read-outs stand apart in the source and are kept apart here.
Experiments:
Format in all cases: cell-based
human α2(T22I)β2-nAChR [1] = biological target: T1, human α2(T22I)β2-nAChR (Homo sapiens, UniProt P17787+Q15822, T22I); conditions: for Higher agonist sensitivity of 1:10 (HS) than 1:1 or 10:1 receptors: α2(T22I):β2 1:10 vs 1:1 or 10:1 cRNA; for Lower Imax of 10:1 than 1:1 receptors / Lower agonist sensitivity of 10:1 than 1:1 receptors: α2(T22I):β2 10:1 vs 1:1 cRNA; for Peak response Imax (Mean±SE): at the Imax concentration of the agonist
T1 sequence (Q15822 27-529): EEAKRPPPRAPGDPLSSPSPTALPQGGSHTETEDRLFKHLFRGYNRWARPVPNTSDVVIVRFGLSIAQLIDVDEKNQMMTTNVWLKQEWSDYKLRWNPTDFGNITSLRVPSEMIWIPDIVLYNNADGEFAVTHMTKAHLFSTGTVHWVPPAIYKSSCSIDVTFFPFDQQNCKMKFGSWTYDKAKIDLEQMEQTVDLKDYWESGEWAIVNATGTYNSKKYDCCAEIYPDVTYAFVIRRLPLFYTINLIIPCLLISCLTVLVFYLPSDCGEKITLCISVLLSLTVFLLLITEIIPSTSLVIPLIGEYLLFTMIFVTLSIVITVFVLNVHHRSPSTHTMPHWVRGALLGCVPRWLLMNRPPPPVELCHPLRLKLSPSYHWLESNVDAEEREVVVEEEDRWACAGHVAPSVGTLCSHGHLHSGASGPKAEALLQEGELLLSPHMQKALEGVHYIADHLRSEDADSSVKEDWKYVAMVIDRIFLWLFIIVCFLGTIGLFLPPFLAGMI
T1 sequence (P17787 26-502): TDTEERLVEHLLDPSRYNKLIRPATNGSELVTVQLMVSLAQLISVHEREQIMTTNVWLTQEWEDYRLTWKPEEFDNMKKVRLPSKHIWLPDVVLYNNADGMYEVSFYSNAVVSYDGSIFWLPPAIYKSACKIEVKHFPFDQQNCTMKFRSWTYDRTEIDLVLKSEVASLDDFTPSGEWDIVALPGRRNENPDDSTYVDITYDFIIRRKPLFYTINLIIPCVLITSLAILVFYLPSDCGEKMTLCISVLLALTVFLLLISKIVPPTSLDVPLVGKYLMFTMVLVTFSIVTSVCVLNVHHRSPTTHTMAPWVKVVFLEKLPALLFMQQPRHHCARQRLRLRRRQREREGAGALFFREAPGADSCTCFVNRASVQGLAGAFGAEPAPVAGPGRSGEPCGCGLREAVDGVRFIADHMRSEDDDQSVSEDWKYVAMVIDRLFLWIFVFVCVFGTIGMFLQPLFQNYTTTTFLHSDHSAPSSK

hα2hβ2wt-nAChR = hα2hβ2wt-nAChR (Homo sapiens, UniProt P17787+Q15822); conditions: 316 μM ACh or 100 μM nicotine
hα2hβ2wt-nAChR, sequence (Q15822 27-529): as the sequence (Q15822 27-529) above
hα2hβ2wt-nAChR, sequence (P17787 26-502): as the sequence (P17787 26-502) above

human α2β2-nAChR [2] = biological target: T2, human α2β2-nAChR (Homo sapiens, UniProt P17787+Q15822); conditions: for Peak current: hα2hβ2opt, 316 μM ACh or 100 μM nicotine; for Higher agonist sensitivity of 1:10 (HS) than 1:1 receptors: α2:β2 1:10 vs 1:1 cRNA; for Higher agonist sensitivity of 1:10 (HS) than 1:1 receptors / Higher agonist sensitivity of 1:10 (HS) than 10:1 (LS) receptors: range printed for ACh or nicotine together; for Lower Imax of 1:10 (HS) than 1:1 or 10:1 receptors: α2:β2 1:10 vs 1:1 or 10:1 cRNA; for Higher agonist sensitivity of 1:10 (HS) than 10:1 (LS) receptors: α2:β2 1:10 vs 10:1 cRNA; for Lower Imax of 10:1 than 1:1 receptors / Lower agonist sensitivity of 10:1 than 1:1 receptors: α2:β2 10:1 vs 1:1 cRNA; for Peak response Imax (Mean±SE): at the Imax concentration of the agonist; for EC50: Potency EC50 (95% CI), −70 mV
T2 sequence (Q15822 27-529): as the sequence (Q15822 27-529) above
T2 sequence (P17787 26-502): as the sequence (P17787 26-502) above

human α2β4-nAChR = human α2β4-nAChR (Homo sapiens, UniProt P30926+Q15822); conditions: for EC50: Potency EC50 (95% CI), −70 mV; for Peak response Imax (Mean±SE): at the Imax concentration of the agonist
human α2β4-nAChR, sequence (Q15822 27-529): as the sequence (Q15822 27-529) above
human α2β4-nAChR, sequence (P30926 22-498): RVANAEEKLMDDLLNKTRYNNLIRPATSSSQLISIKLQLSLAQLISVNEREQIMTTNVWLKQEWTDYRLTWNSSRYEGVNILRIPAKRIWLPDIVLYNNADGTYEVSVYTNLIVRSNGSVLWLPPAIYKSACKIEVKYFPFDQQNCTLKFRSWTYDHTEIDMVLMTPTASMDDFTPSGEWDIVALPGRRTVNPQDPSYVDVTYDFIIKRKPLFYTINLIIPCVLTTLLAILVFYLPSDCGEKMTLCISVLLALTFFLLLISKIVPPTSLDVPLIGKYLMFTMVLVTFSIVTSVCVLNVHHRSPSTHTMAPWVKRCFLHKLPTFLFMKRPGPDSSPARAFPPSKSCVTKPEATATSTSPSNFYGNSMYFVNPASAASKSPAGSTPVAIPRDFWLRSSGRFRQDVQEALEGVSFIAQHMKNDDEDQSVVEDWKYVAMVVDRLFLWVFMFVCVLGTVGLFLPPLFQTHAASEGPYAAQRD

human α2(T22I)β4-nAChR [3] = biological target: T3, human α2(T22I)β4-nAChR (Homo sapiens, UniProt P30926+Q15822, T22I); conditions: for EC50: Potency EC50 (95% CI), −70 mV; for Peak response Imax (Mean±SE): at the Imax concentration of the agonist
T3 sequence (Q15822 27-529): as the sequence (Q15822 27-529) above
T3 sequence (P30926 22-498): as the sequence (P30926 22-498) above

human α2(T22I)β2-nAChR [4] = biological target: T1, human α2(T22I)β2-nAChR; test: Mecamylamine block of agonist-induced Imax responses; conditions: 1000 μM mecamylamine; α2(T22I):β2 1:1, 10:1 or 1:10; data not shown
human α2β2-nAChR [5] = biological target: T2, human α2β2-nAChR; test: as above; conditions: 1000 μM mecamylamine; α2:β2 1:1, 10:1 or 1:10; data not shown
human α2(T22I)β4-nAChR [6] = biological target: T3, human α2(T22I)β4-nAChR; test: Mecamylamine block of agonist-induced peak currents; conditions: ACH-2, read-out: Inhibition of ACh-induced peak current responses, 1000 μM mecamylamine; 316 μM ACh; α2(T22I):β4 1:1

CC(=O)OCC[N+](C)(C)C [ACh, acetylcholine]
Higher agonist sensitivity of 1:10 (HS) than 1:1 or 10:1 receptors (human α2(T22I)β2-nAChR [1]): 4–9 fold
Lower Imax of 10:1 than 1:1 receptors (human α2(T22I)β2-nAChR [1]): ~ 25 fold
Lower agonist sensitivity of 10:1 than 1:1 receptors (human α2(T22I)β2-nAChR [1]): ~ 2 fold
Hill coefficient nH ± SE (human α2(T22I)β2-nAChR [1]; α2(T22I)β2(1:1)): 0.9 ± 0.08
Peak response Imax (Mean±SE) (human α2(T22I)β2-nAChR [1]; α2(T22I)β2(1:1)): 1326 ± 214 nA
Peak response Imax (Mean±SE) (human α2(T22I)β2-nAChR [1]; α2(T22I)β2(1:10)): 952 ± 128 nA
Hill coefficient nH ± SE (human α2(T22I)β2-nAChR [1]; α2(T22I)β2(10:1)): 0.9 ± 0.3
Peak response Imax (Mean±SE) (human α2(T22I)β2-nAChR [1]; α2(T22I)β2(10:1)): 54 ± 9 nA
Peak current (hα2hβ2wt-nAChR): 28±6 nA
Peak current (human α2β2-nAChR [2]): 406±89 nA
Higher agonist sensitivity of 1:10 (HS) than 1:1 receptors (human α2β2-nAChR [2]): 2–3 fold
Lower Imax of 1:10 (HS) than 1:1 or 10:1 receptors (human α2β2-nAChR [2]): 47–70%
Higher agonist sensitivity of 1:10 (HS) than 10:1 (LS) receptors (human α2β2-nAChR [2]): 8–18 fold
Lower Imax of 10:1 than 1:1 receptors (human α2β2-nAChR [2]): ~ 43%
Lower agonist sensitivity of 10:1 than 1:1 receptors (human α2β2-nAChR [2]): ~ 5 fold
Hill coefficient nH ± SE (human α2β2-nAChR [2]; α2β2(1:1)): 0.7 ± 0.05
Peak response Imax (Mean±SE) (human α2β2-nAChR [2]; α2β2(1:1)): 551 ± 62 nA
Hill coefficient nH ± SE (human α2β2-nAChR [2]; α2β2(1:10)): 1 ± 0.08
Peak response Imax (Mean±SE) (human α2β2-nAChR [2]; α2β2(1:10)): 167 ± 18 nA
Hill coefficient nH ± SE (human α2β2-nAChR [2]; α2β2(10:1)): 0.9 ± 0.08
Peak response Imax (Mean±SE) (human α2β2-nAChR [2]; α2β2(10:1)): 314 ± 84 nA

CN1CCC[C@H]1c1cccnc1 [Nicotine, L-nicotine]
EC50 (human α2β4-nAChR; α2β4(1:1) cRNA ratio): 4.7 µM
EC50 (human α2β4-nAChR; α2β4(1:10) cRNA ratio, putative HS): 3.8 µM
EC50 (human α2β4-nAChR; α2β4(10:1) cRNA ratio, putative LS): 11 µM
Hill coefficient nH ± SE (human α2β4-nAChR; α2β4(1:1)): 1.1 ± 0.1
Imax Conc. (concentration where Imax is achieved) (human α2β4-nAChR; α2β4(1:1)): 100 µM
Peak response Imax (Mean±SE) (human α2β4-nAChR; α2β4(1:1)): 2088 ± 96 nA
Peak response Imax (Mean±SE) (human α2β4-nAChR; α2β4(1:1), listed as nicotine): 2088 nA
Hill coefficient nH ± SE (human α2β4-nAChR; α2β4(1:10)): 1.3 ± 0.08
Imax Conc. (concentration where Imax is achieved) (human α2β4-nAChR; α2β4(1:10)): 100 µM
Peak response Imax (Mean±SE) (human α2β4-nAChR; α2β4(1:10)): 1814 ± 155 nA
Hill coefficient nH ± SE (human α2β4-nAChR; α2β4(10:1)): 1.6 ± 0.09
Imax Conc. (concentration where Imax is achieved) (human α2β4-nAChR; α2β4(10:1)): 100 µM
Peak response Imax (Mean±SE) (human α2β4-nAChR; α2β4(10:1)): 1139 ± 93 nA
EC50 (human α2(T22I)β2-nAChR [1]; Potency EC50 (95% CI), α2(T22I)β2(1:1) cRNA ratio, −70 mV): 6.7 µM
Higher agonist sensitivity of 1:10 (HS) than 1:1 or 10:1 receptors (human α2(T22I)β2-nAChR [1]): 3–5 fold
Lower Imax of 10:1 than 1:1 receptors (human α2(T22I)β2-nAChR [1]): ~ 23 fold
Lower agonist sensitivity of 10:1 than 1:1 receptors (human α2(T22I)β2-nAChR [1]): ~ 2 fold
Hill coefficient nH ± SE (human α2(T22I)β2-nAChR [1]; α2(T22I)β2(1:1)): 1.2 ± 0.08
Imax Conc. (concentration where Imax is achieved) (human α2(T22I)β2-nAChR [1]; α2(T22I)β2(1:1)): 100 µM
Peak response Imax (Mean±SE) (human α2(T22I)β2-nAChR [1]; α2(T22I)β2(1:1)): 1463 ± 136 nA
Hill coefficient nH ± SE (human α2(T22I)β2-nAChR [1]; α2(T22I)β2(1:10)): 1 ± 0.07
Imax Conc. (concentration where Imax is achieved) (human α2(T22I)β2-nAChR [1]; α2(T22I)β2(1:10)): 31.6 µM
Peak response Imax (Mean±SE) (human α2(T22I)β2-nAChR [1]; α2(T22I)β2(1:10)): 1004 ± 91 nA
Hill coefficient nH ± SE (human α2(T22I)β2-nAChR [1]; α2(T22I)β2(10:1)): 1.1 ± 0.2
Imax Conc. (concentration where Imax is achieved) (human α2(T22I)β2-nAChR [1]; α2(T22I)β2(10:1)): 100 µM
Peak response Imax (Mean±SE) (human α2(T22I)β2-nAChR [1]; α2(T22I)β2(10:1)): 62 ± 12 nA
Peak current (hα2hβ2wt-nAChR): 24±5 nA
EC50 (human α2β2-nAChR [2]; α2β2(1:1) cRNA ratio): 1.8 µM
EC50 (human α2β2-nAChR [2]; α2β2(1:10) cRNA ratio, putative HS): 0.83 µM
EC50 (human α2β2-nAChR [2]; α2β2(10:1) cRNA ratio, putative LS): 6.3 µM
Peak current (human α2β2-nAChR [2]): 291±55 nA
Higher agonist sensitivity of 1:10 (HS) than 1:1 receptors (human α2β2-nAChR [2]): 2–3 fold
Lower Imax of 1:10 (HS) than 1:1 or 10:1 receptors (human α2β2-nAChR [2]): 72–82%
Higher agonist sensitivity of 1:10 (HS) than 10:1 (LS) receptors (human α2β2-nAChR [2]): 8–18 fold
Lower Imax of 10:1 than 1:1 receptors (human α2β2-nAChR [2]): ~ 36%
Lower agonist sensitivity of 10:1 than 1:1 receptors (human α2β2-nAChR [2]): ~ 3.5 fold
Hill coefficient nH ± SE (human α2β2-nAChR [2]; α2β2(1:1)): 0.8 ± 0.08
Imax Conc. (concentration where Imax is achieved) (human α2β2-nAChR [2]; α2β2(1:1)): 100 µM
Peak response Imax (Mean±SE) (human α2β2-nAChR [2]; α2β2(1:1)): 373 ± 33 nA
Hill coefficient nH ± SE (human α2β2-nAChR [2]; α2β2(1:10)): 1.1 ± 0.13
Imax Conc. (concentration where Imax is achieved) (human α2β2-nAChR [2]; α2β2(1:10)): 31.6 µM
Peak response Imax (Mean±SE) (human α2β2-nAChR [2]; α2β2(1:10)): 68 ± 7.8 nA
Hill coefficient nH ± SE (human α2β2-nAChR [2]; α2β2(10:1)): 1.2 ± 0.06
Imax Conc. (concentration where Imax is achieved) (human α2β2-nAChR [2]; α2β2(10:1)): 100 µM
Peak response Imax (Mean±SE) (human α2β2-nAChR [2]; α2β2(10:1)): 239 ± 21 nA
EC50 (human α2(T22I)β4-nAChR [3]; α2(T22I)β4(1:1) cRNA ratio): 12 µM
EC50 (human α2(T22I)β4-nAChR [3]; α2(T22I)β4(1:10) cRNA ratio, putative HS): 2.6 µM
EC50 (human α2(T22I)β4-nAChR [3]; α2(T22I)β4(10:1) cRNA ratio, putative LS): 14 µM
Hill coefficient nH ± SE (human α2(T22I)β4-nAChR [3]; α2(T22I)β4(1:1)): 1.8 ± 0.07
Imax Conc. (concentration where Imax is achieved) (human α2(T22I)β4-nAChR [3]; α2(T22I)β4(1:1)): 100 µM
Peak response Imax (Mean±SE) (human α2(T22I)β4-nAChR [3]; α2(T22I)β4(1:1)): 1527 ± 245 nA
Peak response Imax (Mean±SE) (human α2(T22I)β4-nAChR [3]; α2(T22I)β4(1:1), listed as nicotine): 1527 nA
Hill coefficient nH ± SE (human α2(T22I)β4-nAChR [3]; α2(T22I)β4(1:10)): 1.2 ± 0.04
Imax Conc. (concentration where Imax is achieved) (human α2(T22I)β4-nAChR [3]; α2(T22I)β4(1:10)): 100 µM
Peak response Imax (Mean±SE) (human α2(T22I)β4-nAChR [3]; α2(T22I)β4(1:10)): 3996 ± 168 nA
Hill coefficient nH ± SE (human α2(T22I)β4-nAChR [3]; α2(T22I)β4(10:1)): 2 ± 0.2
Imax Conc. (concentration where Imax is achieved) (human α2(T22I)β4-nAChR [3]; α2(T22I)β4(10:1)): 100 µM
Peak response Imax (Mean±SE) (human α2(T22I)β4-nAChR [3]; α2(T22I)β4(10:1)): 402 ± 70 nA
Peak current lower than wild-type α2β4 (human α2(T22I)β4-nAChR [3]; α2(T22I)β4 vs α2β4, 1:1 cRNA (mixture of isoforms)): ~ 30%

CNC1(C)C2CCC(C2)C1(C)C (centres unmarked) [Mecamylamine, mecamylamine]
Effect on ACh or nicotine induced Imax responses (human α2(T22I)β2-nAChR [4]): completely abolished
Effect on ACh or nicotine induced Imax responses (human α2β2-nAChR [5]): completely abolished
inhibition at 1000 µM (human α2(T22I)β4-nAChR [6]): 99%

Reference: publication PMC3984001 (Neuropharmacology, 2014)
